Data set [1] in a line: Protein binding in human serum by size exclusion chromatography. The class given is in vitro ADME. The settings on record: 24 h incubation. As for the experimental part:
For protein binding assessment, the radiolabeled DOTA-peptides were incubated in fresh human serum at 37 °C (500 pmol/mL, n = 2). After 1, 4 and 24 h of incubation, two samples were taken for each time point and analyzed by Sephadex G-50 size-exclusion chromatography (GE Healthcare Illustra, Little Chalfont, UK). The percentage of protein binding was determined by measuring the column and the eluate with the gamma-counter.

The nature of data set [2]: Distribution coefficient (logD) in octanol/PBS. The class given is physicochemical. As to conditions: octanol/PBS pH 7.4; read-out: logD. As to the method: The mixture was vigorously vortexed at room temperature over a period of 15 min using a small shaker (MS3 Basic, IKA, Staufen, Germany) with speed of 1500 rpm.
The nature of data set [3]: Stability in fresh human serum (radio-HPLC). The class given is in vitro ADME. As to conditions: 24 h incubation, 37 °C. As to the method:
In vitro stability studies for the characterization of the metabolic stability of the radiolabeled peptide analogs in human serum were carried out with [^177Lu]Lu-1, [^177Lu]Lu-M1, [^177Lu]Lu-M2, [^177Lu]Lu-M3 and [^177Lu]Lu-M4 (n = 2). Additional stability studies in rat liver and kidney homogenates were performed for [^177Lu]Lu-1 (n = 2). Tissue homogenates were prepared from dissected organs by homogenization for 1 min at RT (IKA-Werke, Staufen, Germany) in 20 mM HEPES buffer pH 7.3 (30% v/v). The radioligands were incubated in the different media at a concentration of 500 pmol/mL (corresponding to an activity of 6–11 MBq). After incubation at 37 °C at different time points for up to 24 h, a 100 µl sample was taken in duplicates and analyzed by HPLC. Samples obtained from human serum and rat homogenates were treated with ACN at a ratio of 1:1.5 (v/v) to precipitate proteins, centrifuged (14,000 rpm, 2 min, centrifuge 5424, Eppendorf AG, Germany) and diluted with water at a ratio of 1:1 (v/v). A 100 µl aliquot of this solution was injected into the radio HPLC system. The degradation of the radioligand was evaluated based on the radiochemical purity after radiolabeling and the percentage of intact radiopeptide observed during incubation in the different media.

A short description of data set [4]: Metabolic stability in vivo and radiometabolites (radio-HPLC of blood, urine, liver, kidney). More on the design: species or system BALB/c mice. As for the experimental part:
Metabolic biodistribution studies were performed in accordance with the ethical standards of the institution and approved by the Austrian Ministry of Science (BMWFW-66.011/0072-V/3b/2019). These studies were carried out in 5- to 7-week-old female BALB/c mice (n = 3) injected with [^177Lu]Lu-1 via a lateral tail vein. To allow monitoring of the metabolites by radio-HPLC, mice were injected with 30 MBq corresponding to 0.8 nmol total peptide. The mice were euthanized by cervical dislocation after different time points of 10 min, 30 min and 1 h p.i. and the urine and a venous blood sample were collected at the time of sacrifice. Liver and kidneys were dissected and homogenized in 20 mM HEPES buffer pH 7.3 at a ratio of 1:1 (v/v) with an Ultra-Turrax T8 homogenizer (IKA-Werke, Staufen, Germany) for 1 min at RT. Before radio-HPLC analysis, the samples (except urine) were treated with ACN at a ratio of 1:1 (v/v) to precipitate proteins, centrifuged at 2000× g for 2 min and diluted with water at a ratio of 1:1 (v/v). For HPLC analysis of the samples, the analytical HPLC system described above with a flow rate of 1 mL/min was used together with the following optimized water/ACN/0.1% TFA gradient to allow a better separation of [^177Lu]Lu-1 and the different radiometabolites: 0–7 min 1–7% ACN, 7–8 min 7–10% ACN, 8–18 min 10–18% ACN, 18–20 min 18–32% ACN, 20–27 min 32% ACN, 27–37 min […], 37–40 min 80% ACN, 40–40.1 min 80–1% ACN, 40.1–45 min 1% ACN. Urine was measured with the low-sensitivity loop of the radiodetector. The remaining samples were analyzed with the high-sensitivity loop due to the lower radioactivity present in blood, liver and kidney homogenate. To quantify the percentage of intact [^177Lu]Lu-1 and [^177Lu]Lu-M1 showing some overlap in the radiochromatogram when using the high-sensitivity loop of the radiodetector, the two radiopeptides were co-injected at different known ratios to enable a more accurate separation and integration of the two peaks (see supporting Figure S4). Mice from the metabolic biodistribution studies were subjected to a further dissection of all remaining tissues (blood, lung, heart, femur, spleen, muscle, intestine, pancreas and stomach). All organs, also including liver and kidneys, were weighed, and their radioactivity was measured in the gamma counter together with a standard and the residual body. To quantify the uptake of radioactivity in liver and kidneys, a part of liver and kidney homogenate was measured in the gamma counter to extrapolate the radioactivity for the whole organ.

Data set [5] deals with neprylisin-1 and neprylisin-2. Briefly: Incubation in vitro with neprylisin-1 and neprylisin-2. As to conditions: cited from earlier work.
In the next data set the test system is A431-CCK2R xenografts. As to conditions: mouse, in vivo; cited from earlier work.
Details of data set [6]: method as in PMID 29896292. As to conditions: radiolabeled with different radiometals; cited from earlier work.
On the set-up of data set [7]: method as in doi:10.2174/1874471010902040304. The settings on record: kidney homogenate; labeled with indium-111; cited from earlier work.
The nature of another data set: fresh human serum. As to conditions: 37 °C, up to 24 h.
Data set [8] in a line: soluble phase extracted from liver homogenate of BALB/c mice injected with [^177Lu]Lu-1. As to conditions: female BALB/c mice, up to 1 h p.i.
A short description of data set [9]: urine of BALB/c mice injected with [^177Lu]Lu-1. As to conditions: female BALB/c mice, up to 1 h p.i.
Data set [10] is described as follows: blood of BALB/c mice injected with [^177Lu]Lu-1. The settings on record: female BALB/c mice, up to 1 h p.i.
Data set [11] is described as follows: soluble phase extracted from kidney homogenate of BALB/c mice injected with [^177Lu]Lu-1. The settings on record: female BALB/c mice, up to 1 h p.i.
Data set [12] can be described thus: blood of patients injected with ^111In-labeled DOTA-MG11. The settings on record: up to 10 min after injection; cited from earlier work.
Setting [13] is: blood, 30 min p.i., mice injected i.v. with [177Lu]Lu-1.
Where [14] appears, read: blood, 60 min p.i., mice injected i.v. with [177Lu]Lu-1.
[15] abbreviates: blood, different time points up to 1 h p.i.

“And” between values parts separate entries of the source, which are not always exact repeats. Equal values may be shown once. “Also recorded” adds a separate entry of the source. Where a SMILES comes first, the peptide text is derived from it. Where no end group is shown, it is not given here. [ ]: non-standard residue; d: D form. The star is where a group is joined. DOTA = O=C(O)CN1CCN(CC(=O)O)CCN(CC(=O)*)CCN(CC(=O)O)CC1; NMeNle = CCCC[C@H](NC)C(=O)O

Consider `CCCC[C@@H](C(=O)N[C@@H](CC(=O)O)C(=O)O)N(C)C(=O)[C@H](Cc1c[nH]c2ccccc12)NC(=O)CNC(=O)[C@H](Cc1ccc(O)cc1)NC(=O)[C@@H]1CCCN1C(=O)[C@@H](CCC(=O)O)NC(=O)CN1CCN(CC(=O)O)CCN(CC(=O)O)CCN(CC(=O)O)CC1` [[^177Lu]Lu-M2, metal not drawn] ({DOTA}-[dE]PYGW[NMeNle]D-OH; C-terminus assumed), for which the fraction unbound – broadly, the share of the substance not bound to proteins or other matrix – in data set [1] is 0.519. Moreover, the logD (in general, lipophilicity at a set pH, counting ionised and neutral species) in data set [2] is -4.18 ± 0.17. In addition, the intact radiopeptide in data set [3] is 98.1 ± 0.3%. In addition, the “percentage of intact radiopeptide / radiometabolite” value in [4] (setting [13]) is 3.8%; in data set [4] (setting [14]), 7.3%; in data set [4] (kidney, 30 min p.i.), 20.7%; in data set [4] (kidney, 60 min p.i.), 12% and 12.3%; in data set [4] (liver, 30 min p.i.), 7.2%; in [4] (liver, 60 min p.i.), 6.9%. The “percentage of intact radiopeptide / radiometabolite” value in [4] (urine, 30 min p.i.) is listed as 40.5%; in data set [4] (urine, 60 min p.i.) it was 40.3%. Also, the amount of radiometabolite in [4] (setting [15]) was below 8%; in [4] (urine, time point not stated), ~ 40%.

Turning to `CCCC[C@@H](C(=O)O)N(C)C(=O)[C@H](Cc1c[nH]c2ccccc12)NC(=O)CNC(=O)[C@H](Cc1ccc(O)cc1)NC(=O)[C@@H]1CCCN1C(=O)[C@@H](CCC(=O)O)NC(=O)CN1CCN(CC(=O)O)CCN(CC(=O)O)CCN(CC(=O)O)CC1` [[^177Lu]Lu-M3, metal not drawn] ({DOTA}-[dE]PYGW[NMeNle]-OH; C-terminus assumed), the fraction unbound in [1] was 0.766. For the same compound, the logD in data set [2] is -4.13 ± 0.11. Also, the results for the intact radiopeptide in data set [3] and in data set [3] (listed as radiolabeled M3) were 29.7 ± 0.8% and “less than 30%”, respectively. The “percentage of intact radiopeptide / radiometabolite” value came out at 17.0% in data set [4] (setting [13]); 20.4% in data set [4] (setting [14]); 7.9% in [4] (kidney, 30 min p.i.); 8.5% in data set [4] (liver, 30 min p.i.); 5.6% in data set [4] (liver, 60 min p.i.); 9.5% in [4] (urine, 30 min p.i.). The “percentage of intact radiopeptide / radiometabolite” value in [4] (urine, 60 min p.i.) came out at 9.8%. For the same compound, the amount of radiometabolite in [4] (setting [15]) is below 21%.

For the compound “DOTA-(DGlu)6-Ala-Tyr-Gly-Trp-Met-Asp-Phe-NH2”, the cleaved bond result in [5] was “Asp-Phe”.

Turning to “DOTA-(DGlu)6-Ala-Tyr-Gly-Trp-Met-Asp-Phe-NH2 (AYGWMDF; DOTA-(D-Glu)6 N-terminus, C-amide; radiolabel; printed: Ala-Tyr-Gly-Trp-Met-Asp-Phe-) [PP-F11]”, the tumor uptake with A431-CCK2R xenografts is listed as ~ 6.7 % IA/g.

In the case of “DOTA-(DGlu)6-Ala-Tyr-Gly-Trp-Nle-Asp-Phe-NH2”, the not cleaved result in data set [5] is given as “seemed to be resistant against neprylisins”.

As to “DOTA-(DGlu)6-Ala-Tyr-Gly-Trp-Nle-Asp-Phe-NH2 [PP-F11N]”, the tumor uptake with A431-CCK2R xenografts was 6.9 % IA/g.

Take “DOTA-DGlu-Ala-Tyr-Gly-Trp-(N-Me)Nle-Asp-1Nal-NH2 [DOTA-MGS5]”: the tumor-to-kidney ratio in the data set on A431-CCK2R xenografts is reported as 4–6. For the same compound, the cell uptake in data set [6] was above 50%.

Consider “DOTA-DGlu-Ala-Tyr-Gly-Trp-Met-Asp-Phe-NH2 ({DOTA}-[dE]AYGWMDF-NH2; also: 111In complex) [DOTA-MG11, truncated MG analog, results quoted for the indium-111 labeled form]”, for which the “time to complete degradation” value in [7] is at most 10 min.

DOTA-DGlu-Pro-Tyr-Gly-Trp-(N-Me)Nle-Asp displayed a not cleaved in the data set “fresh human serum” of 98.1 ± 0.3% after 24 h incubation.

Turning to “DOTA-DGlu-Pro-Tyr-Gly-Trp-(N-Me)Nle-Asp-1Nal-NH2”, the cleaved bond is 1Nal-NH2 and Asp-1Nal and (N-Me)Nle-Asp and Trp-(N-Me)Nle, minor and Gly-Trp and Tyr-Gly in data set [8]; 1Nal-NH2, minor and Asp-1Nal, major and (N-Me)Nle-Asp and Gly-Trp, major in data set [9]; 1Nal-NH2, minor and Asp-1Nal, minor and (N-Me)Nle-Asp, minor and Gly-Trp, minor in [10]; 1Nal-NH2 and Asp-1Nal and (N-Me)Nle-Asp and Gly-Trp and Tyr-Gly and Pro-Tyr, minor, 60 min in data set [11]. Besides, the not cleaved result in [8] was “M8 not found in any of the tissues examined”; in data set [9], “M8 not found in any of the tissues examined”; in data set [10], “M8 not found in any of the tissues examined”; in the data set “fresh human serum”, 96.2 ± 1.3% intact peptide after 24 h incubation; in [11], “M8 not found in any of the tissues examined”.

Turning to {DOTA}-[dE]AYGWMDF-NH2, in data set [12], the fragment found entry was “DOTA-DGlu-Ala-Tyr, 10 min after injection”. In addition, the cleaved bond entry in data set [5] was “Asp-Phe; also recorded: Gly-Trp”.

Regarding {DOTA}-[dE]PYGW, in “fresh human serum”, the not cleaved came to 98.4 ± 0.01% after 24 h incubation.

The values are drawn from PMC7583830 (Molecules, 2020).
